Experimental data taken from patent US9873705B2, “Vinylogous thioester compounds and methods of use” (THE TRUSTEES OF DARTMOUTH COLLEGE, priority 2015, dated 2018).
Entries after “also recorded” stand apart in the source; their conditions may differ.

Test system: mitochondrial marker Tom20 in U87-MG cells
Test: Tom20 flow cytometry (mitochondrial fluorescence)
Assay type: cell-based, human
Conditions: 20 h, 2 or 2.75 μM
Experimental: The data for FIG. 8 was obtained as follows: U87-MG cells were plated at a concentration of 500,000 cells/well in a 6-well plate and allowed to adhere overnight. Cells were treated for 4 h with DMSO, followed by a 20 h cotreatment with DMSO, 2 μM Y102, 2.75 μM Y102, or 50 μM HCQ. Following treatment, cells were harvested using 0.25% trypsin, rinsed with PBS, and fixed for 20 minutes at 4° C. using BD Cytofix/Cytoperm fixation and permabilization solution (BD Biosciences). Following 2 washes with BD Perm/Wash buffer (BD Biosciences), cells were stained for 30 minutes at 4° C. in the dark for the mitochondrial marker Tom20 using anti-Tom20 FL-145 (Santa Cruz, 1:200). Following an additional 2 washes with BD Perm/Wash buffer, cells were stained with goat anti-rabbit 488 (Jackson ImmunoResearch Laboratories) secondary antibody for 30 minutes at 4° C. in the dark. Cells were washed twice with BD Perm/Wash buffer, resuspended in 0.5 mL PBS, and filtered prior to analysis. The cells were transferred to flow cytometry tubes and analyzed using a MacsQuant VYB 8-color flow cytometer. Tom20 fluorescence was detected using the B1-A (FITC) channel. 35,000 events/sample were collected and cellular debris was gated out of the dataset. Histograms were generated using the FlowLogic flow cytometry analysis software package.

Cn1cnnc1S/C=C/C(=O)c1ccc(F)cc1 [Y102]
mitochondrial fluorescence / accumulation (Tom20): increase in mitochondrial fluorescence; also recorded: accumulation of the mitochondria
